“Also recorded” adds a separate entry of the source.
What was measured:
[1] = tested on: IFNb, CXCL-10, CXCL-9, CCL-2, TNFα, IL-1β, and IL-6 in lymph nodes; experiment: Innate immune response in mice after intramuscular injection of STING agonists (qPCR of cytokines in draining lymph nodes); type: in vivo; conditions: 20 μg intramuscular, 6 hrs
[2] = tested on: IFNγ, TNFα and IL-4 secretion; parameters: species or system mice; conditions: mouse, in vivo
HIV NHR trimer (N3G) = type: in vivo; conditions: mice, CF501 as adjuvant, sera 7 days after the second vaccination
[3] = tested on: cytokines in draining lymph nodes; conditions: mouse, in vivo
SARS-CoV-2 pseudovirus = tested on: SARS-CoV-2 pseudovirus; parameters: species or system New Zealand white rabbits; conditions: rabbit, in vivo

Row | Structure (SMILES) | production of the cytokines in lymph nodes [1] | neutralizing antibodies relative to Alum (in words) (SARS-CoV-2 pseudovirus) | also measured
1 | CCn1nc(C)cc1C(=O)Nc1nc2cc(C(N)=O)cnc2n1C/C=C/Cn1c(NC(=O)c2cc(C)nn2CC)nc2cc(C(N)=O)cc(OCCCN3CCOCC3)c21 [CF501, (E)-3-(4-(5-carbamoyl-2-(1-ethyl-3-methyl-1H-pyrazole-5-carboxamido)-7-(3-morpholinopropoxy)-1H-benzo[d]imidazol-1-yl)but-2-en-1-yl)-2-(1-ethyl-3-methyl-1H-pyrazole-5-carboxamido)-3H-imidazo[4,5-b]pyridine-6-carboxamide] | can activate a large production of the cytokines; also recorded: more potently than cGAMP | – | T cell immune response in mice [2]: can strongly activate the T cell immune response in mice; antibody immune response to the HIV NHR trimer (N3G) (HIV NHR trimer (N3G)): can significantly enhance the antibody immune response in vaccinated mice; inflammation in the mice (transient activation, safety) [3]: does not cause inflammation in the mice
2 | CCn1nc(C)cc1C(=O)Nc1nc2cc(C(N)=O)cnc2n1C/C=C/Cn1c(NC(=O)c2cc(C)nn2CC)nc2cc(C(N)=O)cc(OCCN3CCOCC3)c21 [CF510, (E)-3-(4-(5-carbamoyl-2-(1-ethyl-3-methyl-1H-pyrazole-5-carboxamido)-7-(2-morpholinoethoxy)-1H-benzo[d]imidazol-1-yl)but-2-en-1-yl)-2-(1-ethyl-3-methyl-1H-pyrazole-5-carboxamido)-3H-imidazo[4,5-b]pyridine-6-carboxamide] | – | could not induce more potent neutralizing antibodies relative to Alum in the rabbits | –
3 | CCn1nc(C)cc1C(=O)/N=c1\n(C)c2cc(C(N)=O)cnc2n1C/C=C/Cn1/c(=N/C(=O)c2cc(C)nn2CC)n(C)c2cc(C(N)=O)cc(OCCCN3CCOCC3)c21 [CF512, (E)-3-((E) 4-((E)-5-carbamoyl-2-((1-ethyl-3-methyl-1H-pyrazole-5-carbonyl)imino)-3-methyl-7-(3-morpholinopropoxy)-2,3-dihydro-1H-benzo[d]imidazol-1-yl)but-2-en-1-yl)-2-((1-ethyl-3-methyl-1H-pyrazole-5-carbonyl)imino)-1-methyl-2,3-dihydro-1H-imidazo[4,5-b]pyridine-6-carboxamide] | – | could not induce more potent neutralizing antibodies relative to Alum in the rabbits | –
4 | CCn1nc(C)cc1C(=O)Nc1nc2cc(C(N)=O)ccc2n1C/C=C/Cn1c(NC(=O)c2cc(C)nn2CC)nc2cc(C(N)=O)cnc21 [CF502, (E)-3-(4-(5-carbamoyl-2-(1-ethyl-3-methyl-1H-pyrazole-5-carboxamido)-1H-benzo[d]imidazol-1-yl)but-2-en-1-yl)-2-(1-ethyl-3-methyl-1H-pyrazole-5-carboxamido)-3H-imidazo[4,5-b]pyridine-6-carboxamide] | – | could not induce more potent neutralizing antibodies relative to Alum in the rabbits | –
5 | CCn1nc(C)cc1C(=O)Nc1nc2cc(C(N)=O)cnc2n1C/C=C/Cn1c(NC(=O)c2cc(C)nn2CC)nc2cc(C(N)=O)cc(OCCCN3CCNCC3)c21 [CF508, (E)-3-(4-(5-carbamoyl-2-(1-ethyl-3-methyl-1H-pyrazole-5-carboxamido)-7-(3-(piperazin-1-yl)propoxy)-1H-benzo[d]imidazol-1-yl)but-2-en-1-yl)-2-(1-ethyl-3-methyl-1H-pyrazole-5-carboxamido)-3H-imidazo[4,5-b]pyridine-6-carboxamide] | – | could not induce more potent neutralizing antibodies relative to Alum in the rabbits | –
6 | Nc1nc2c(ncn2[C@@H]2O[C@@H]3COP(=O)(O)O[C@H]4[C@@H](O)[C@H](n5cnc6c(N)ncnc65)O[C@@H]4COP(=O)(O)O[C@H]3[C@H]2O)c(=O)[nH]1 [cGAMP, 3′-3′ cGAMP, reference compound] | can activate a large production of the cytokines | – | –

Reference: patent publication US20240002383A1 (priority 2021, published 2024)
